Values quoted from earlier work as cited in patent US20130274331A1, “Method for Treating Hyperuricemia in Patients with Gout Using Halofenate or Halofenic Acid and an Anti-Inflammatory Agent” (Metabolex, Inc., priority 2012, published 2013).

Settings: gout patients; monotherapy at 40, 80, 120, 160 and 240 mg/day

O=c1[nH]cnc2c(CN3C[C@H](CO)[C@@H](O)C3)c[nH]c12 [BCX4208, 7-(((3R,4R)-3-hydroxy-4-(hydroxymethyl)pyrrolidin-1-yl)methyl)-3H-pyrrolo[3,2-d]pyrimidin-4(5H)-one]
reduction of serum uric acid: rapidly and significantly reduced serum uric acid
